Results as given in patent publication US20170333591A9, “ABSORBENT ARTICLE COMPRISING MALODOR REDUCTION COMPOSITIONS” (The Procter & Gamble Company, priority 2014, published 2017).

Test: Log of liquid dish neat product liquid-air partition coefficient
Format: physicochemical
Settings: for Log of liquid dish neat product liquid-air partition coefficient (Comment Code): code letters K/L of the Comment Code

SMILES | Log of liquid dish neat product liquid-air partition coefficient (Comment Code K/L) (code letter within the Comment Code cell) | Log of liquid dish neat product liquid-air partition coefficient (Comment Code) | Comment Code: Log of liquid dish neat product liquid-air partition coefficient
CC1=C(CCC(C)C=O)C(C)(C)CCC1 (centres unmarked) [Material 560] | K (Log of liquid dish neat product liquid-air partition coefficient greater than or equal to 7) | – | –
CC(=O)c1cc(C(C)(C)C)cc2c1CCC2(C)C [Material 563] | – | K (Log of liquid dish neat product liquid-air partition coefficient greater than or equal to 7) | –
COC1(C)CCC23CC1C(C)(C)C2CCC3C (centres unmarked) [Material 565] | – | K (Log of liquid dish neat product liquid-air partition coefficient greater than or equal to 7) | K (Log of liquid dish neat product liquid-air partition coefficient greater than or equal to 7)
CC1CCC2C(C)(C)C3CC12CCC3(C)OC=O (centres unmarked) [Material 566] | – | K (Log of liquid dish neat product liquid-air partition coefficient greater than or equal to 7) | K (Log of liquid dish neat product liquid-air partition coefficient greater than or equal to 7)
CC(=O)O[C@]1(C)CC[C@@]23C[C@@H]1C(C)(C)[C@@H]2CC[C@H]3C [Material 567] | – | K (Log of liquid dish neat product liquid-air partition coefficient greater than or equal to 7) | K (Log of liquid dish neat product liquid-air partition coefficient greater than or equal to 7)
CC1=CCCC2(C)OC2CCC(C)=CCC1 (centres unmarked) [Material 568] | – | K (Log of liquid dish neat product liquid-air partition coefficient greater than or equal to 7) | –
C[C@@H]1CC[C@H]2C(C)(C)[C@H]3C[C@@]12CC[C@@]3(C)O [Material 569] | – | K (Log of liquid dish neat product liquid-air partition coefficient greater than or equal to 7) | K (Log of liquid dish neat product liquid-air partition coefficient greater than or equal to 7)
CC1=CCC(C23CCCC(C)(C2)OC3)C1(C)C (centres unmarked) [Material 570] | – | K (Log of liquid dish neat product liquid-air partition coefficient greater than or equal to 7) | K (Log of liquid dish neat product liquid-air partition coefficient greater than or equal to 7)
CC1C(C)(C)C2=C(C(=O)CCC2)C1(C)C (centres unmarked) [Material 572] | – | K (Log of liquid dish neat product liquid-air partition coefficient greater than or equal to 7) | –
CC(=O)OC12CCCC(C)(CCC3C1CC3(C)C)C2 (centres unmarked) [Material 573] | – | K (Log of liquid dish neat product liquid-air partition coefficient greater than or equal to 7) | K (Log of liquid dish neat product liquid-air partition coefficient greater than or equal to 7)
CC12CCCC(O)(C1)C1CC(C)(C)C1CC2 (centres unmarked) [Material 574] | – | K (Log of liquid dish neat product liquid-air partition coefficient greater than or equal to 7) | K (Log of liquid dish neat product liquid-air partition coefficient greater than or equal to 7)
Cc1ccc(C(C)C)cc1O [Material 575] | – | – | K (Log of liquid dish neat product liquid-air partition coefficient greater than or equal to 7)
C=C(C)C1CC=C(C)C(OC(C)=O)C1 (centres unmarked) [Material 577] | – | K (Log of liquid dish neat product liquid-air partition coefficient greater than or equal to 7) | –
CCOCCOCCO [Material 579] | – | – | K (Log of liquid dish neat product liquid-air partition coefficient greater than or equal to 7)
CCCCCCCCCC(=O)O [Material 582] | – | K (Log of liquid dish neat product liquid-air partition coefficient greater than or equal to 7) | –
COc1ccc(CC(C)C=O)cc1 (centres unmarked) [Material 586] | – | K (Log of liquid dish neat product liquid-air partition coefficient greater than or equal to 7) | –
CC12CCC(C(=O)C1=O)C2(C)C (centres unmarked) [Material 587] | – | K (Log of liquid dish neat product liquid-air partition coefficient greater than or equal to 7) | –
CCCCOC(=O)C(C)OC(=O)CCC (centres unmarked) [Material 595] | – | K (Log of liquid dish neat product liquid-air partition coefficient greater than or equal to 7) | –
C=CCCCCCCCCC(=O)OCCCC [Material 599] | – | K (Log of liquid dish neat product liquid-air partition coefficient greater than or equal to 7) | –
CC1=CCC(CCC(C)CO)C1(C)C (centres unmarked) [Material 600] | – | K (Log of liquid dish neat product liquid-air partition coefficient greater than or equal to 7) | –
CC(C)(C)c1ccc(CCC=O)cc1 [Material 601] | – | K (Log of liquid dish neat product liquid-air partition coefficient greater than or equal to 7) | –
CC1=C(C/C=C(\C)C=O)C(C)(C)CCC1 [Material 602] | – | – | K (Log of liquid dish neat product liquid-air partition coefficient greater than or equal to 7)

SMILES | Log of liquid dish neat product liquid-air partition coefficient (Comment Code K/L) (code letter within the Comment Code cell) | Log of liquid dish neat product liquid-air partition coefficient (Comment Code) | Comment Code: Log of liquid dish neat product liquid-air partition coefficient
CC(C)C(=O)OC1CC2CCC1(C)C2(C)C (centres unmarked) [Material 603] | – | K (Log of liquid dish neat product liquid-air partition coefficient greater than or equal to 7) | K (Log of liquid dish neat product liquid-air partition coefficient greater than or equal to 7)
C=C1C2CCC(C)(OCC)C1CCC2(C)C (centres unmarked) [Material 606] | – | K (Log of liquid dish neat product liquid-air partition coefficient greater than or equal to 7) | –
CCOCOC1CCCCCCCCCCC1 [Material 607] | – | K (Log of liquid dish neat product liquid-air partition coefficient greater than or equal to 7) | –
CC(C)=CCCC(C)=C1CC=C(C)CC1 [Material 608] | – | K (Log of liquid dish neat product liquid-air partition coefficient greater than or equal to 7) | –
CC1=CC(=O)CC(C)C12CCC(=C(C)C)C2 (centres unmarked) [Material 610] | – | K (Log of liquid dish neat product liquid-air partition coefficient greater than or equal to 7) | –
C=C(C)C1CCC(C)(OC(C)=O)CC1 (centres unmarked) [Material 611] | – | K (Log of liquid dish neat product liquid-air partition coefficient greater than or equal to 7) | –
C=C(C)C1CCC(C)(O)CC1 (centres unmarked) [Material 612] | – | K (Log of liquid dish neat product liquid-air partition coefficient greater than or equal to 7) | –
C=CC(=C)CCC=C(C)CCC=C(C)C=O [Material 613] | – | K (Log of liquid dish neat product liquid-air partition coefficient greater than or equal to 7) | –
C=C1C=CC(C(C)CCC=C(C)C)CC1 (centres unmarked) [Material 614] | – | K (Log of liquid dish neat product liquid-air partition coefficient greater than or equal to 7) | –
C=C(C)C1CCC2(C)CCCC(=C)C2C1 (centres unmarked) [Material 615] | – | K (Log of liquid dish neat product liquid-air partition coefficient greater than or equal to 7) | –
C=C1C2CCC(C2)C1(C)CCC=C(C)CO (centres unmarked) [Material 616] | – | K (Log of liquid dish neat product liquid-air partition coefficient greater than or equal to 7) | K (Log of liquid dish neat product liquid-air partition coefficient greater than or equal to 7)
CC1=C2CCC3(C)OC3C2C(C)(C)CCC1 (centres unmarked) [Material 624] | – | K (Log of liquid dish neat product liquid-air partition coefficient greater than or equal to 7) | K (Log of liquid dish neat product liquid-air partition coefficient greater than or equal to 7)
COC(Cc1ccccc1)OC [Material 627] | – | K (Log of liquid dish neat product liquid-air partition coefficient greater than or equal to 7) | K (Log of liquid dish neat product liquid-air partition coefficient greater than or equal to 7)
C=CC(=C)CCC=C(C)CCC=C(C)C [Material 628] | – | K (Log of liquid dish neat product liquid-air partition coefficient greater than or equal to 7) | –
CC(=O)C=CC12OC1(C)CCCC2(C)C (centres unmarked) [Material 636] | – | K (Log of liquid dish neat product liquid-air partition coefficient greater than or equal to 7) | –
CC(C)(O)CCc1ccccc1 [Material 639] | – | K (Log of liquid dish neat product liquid-air partition coefficient greater than or equal to 7) | –
CC(=O)CCc1ccccc1 [Material 640] | – | – | K (Log of liquid dish neat product liquid-air partition coefficient greater than or equal to 7)
CC(C)CC(=O)OCc1ccccc1 [Material 645] | – | – | K (Log of liquid dish neat product liquid-air partition coefficient greater than or equal to 7)
CC(C)C(=O)OCc1ccccc1 [Material 647] | – | – | K (Log of liquid dish neat product liquid-air partition coefficient greater than or equal to 7)
CC(C)(O)Cc1ccccc1 [Material 649] | – | K (Log of liquid dish neat product liquid-air partition coefficient greater than or equal to 7) | –
CC(C)C1OCCC2(CC3CCC2(C)C3(C)C)O1 (centres unmarked) [Material 659] | – | K (Log of liquid dish neat product liquid-air partition coefficient greater than or equal to 7) | K (Log of liquid dish neat product liquid-air partition coefficient greater than or equal to 7)
CC(C)=CCCC1=CCC(C#N)CC1 (centres unmarked) [Material 660] | – | K (Log of liquid dish neat product liquid-air partition coefficient greater than or equal to 7) | –
